Test results from ChEMBL document CHEMBL1154508, “Discovery of GSK345931A: An EP(1) receptor antagonist with efficacy in preclinical models of inflammatory pain” (Bioorg Med Chem Lett, 2009).

What was measured:
[1] = Drug level in blood of sub-chronic rat joint pain efficacy model treatment group at 20 mg/kg bid measured on day 5 after 1 hr post dose; type: ADME, organism-based; set-up: dose 20 mg/kg; conditions: read-out: Drug uptake
[2] = Drug level in brain of sub-chronic rat joint pain efficacy model treatment group at 20 mg/kg bid measured on day 5 after 1 hr post dose; type: ADME, organism-based; set-up: dose 20 mg/kg; conditions: read-out: Drug uptake
[3] = Drug level in rat brain at 0.28 mg/kg/hr, iv for 18 hrs; type: ADME, organism-based; set-up: route intravenous; conditions: read-out: Drug uptake
[4] = Drug level in brain of complete Freund's adjuvant-induced rat inflammatory pain model at 3 mg/kg, po after 1 hr; type: ADME, organism-based; set-up: dose 3 mg/kg, route oral; conditions: read-out: Drug uptake
[5] = Ratio of drug level in brain to blood in rat at 0.28 mg/kg/hr, iv for 18 hrs; type: ADME, organism-based; set-up: route intravenous
[6] = target: T1, Prostaglandin E2 receptor EP1 subtype (Rattus norvegicus, UniProt P70597); assay: Binding affinity to rat EP1 receptor
T1 sequence (P70597 whole entry): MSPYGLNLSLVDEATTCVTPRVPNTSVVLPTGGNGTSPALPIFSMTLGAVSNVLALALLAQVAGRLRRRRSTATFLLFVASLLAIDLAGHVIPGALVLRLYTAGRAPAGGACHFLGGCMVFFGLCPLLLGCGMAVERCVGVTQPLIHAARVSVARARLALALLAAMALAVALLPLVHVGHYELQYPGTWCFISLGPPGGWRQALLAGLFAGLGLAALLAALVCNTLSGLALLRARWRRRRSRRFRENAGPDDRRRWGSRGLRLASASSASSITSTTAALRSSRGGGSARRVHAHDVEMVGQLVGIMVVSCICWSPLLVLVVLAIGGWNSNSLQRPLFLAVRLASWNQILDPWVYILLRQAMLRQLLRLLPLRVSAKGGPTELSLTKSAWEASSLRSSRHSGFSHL

[7] = Drug level in blood of sub-chronic rat joint pain efficacy model satellite animal group at 5 mg/kg bid measured on day 1 after 1 hr post dose; type: ADME, organism-based; set-up: dose 5 mg/kg; conditions: read-out: Drug uptake
[8] = Drug level in blood of complete Freund's adjuvant-induced rat inflammatory pain model at 2 mg/kg, po after 1 hr; type: ADME, organism-based; set-up: dose 2 mg/kg, route oral; conditions: read-out: Drug uptake
[9] = target: T2, Peroxisome proliferator-activated receptor alpha (Homo sapiens, UniProt Q07869); assay: Activity at PPARalpha
T2 sequence (Q07869 whole entry): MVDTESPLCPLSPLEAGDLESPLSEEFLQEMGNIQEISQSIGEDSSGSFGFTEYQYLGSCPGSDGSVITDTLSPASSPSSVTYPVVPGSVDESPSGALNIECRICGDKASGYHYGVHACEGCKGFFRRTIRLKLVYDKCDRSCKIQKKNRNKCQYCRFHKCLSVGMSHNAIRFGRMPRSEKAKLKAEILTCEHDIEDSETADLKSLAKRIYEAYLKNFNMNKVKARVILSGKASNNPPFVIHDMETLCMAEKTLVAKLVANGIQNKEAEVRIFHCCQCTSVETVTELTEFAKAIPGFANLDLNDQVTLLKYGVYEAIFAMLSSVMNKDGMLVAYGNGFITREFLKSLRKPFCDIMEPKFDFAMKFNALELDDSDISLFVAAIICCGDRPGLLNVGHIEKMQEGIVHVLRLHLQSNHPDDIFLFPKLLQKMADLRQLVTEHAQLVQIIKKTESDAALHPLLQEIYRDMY

[10] = Drug level in brain of complete Freund's adjuvant-induced rat inflammatory pain model at 2 mg/kg, po after 1 hr; type: ADME, organism-based; set-up: dose 2 mg/kg, route oral; conditions: read-out: Drug uptake
[11] = target: T3, Prostaglandin E2 receptor EP1 subtype (Homo sapiens, UniProt P34995); assay: Antagonist activity at EP1 receptor by FLIPR calcium mobilization assay
T3 sequence (P34995 whole entry): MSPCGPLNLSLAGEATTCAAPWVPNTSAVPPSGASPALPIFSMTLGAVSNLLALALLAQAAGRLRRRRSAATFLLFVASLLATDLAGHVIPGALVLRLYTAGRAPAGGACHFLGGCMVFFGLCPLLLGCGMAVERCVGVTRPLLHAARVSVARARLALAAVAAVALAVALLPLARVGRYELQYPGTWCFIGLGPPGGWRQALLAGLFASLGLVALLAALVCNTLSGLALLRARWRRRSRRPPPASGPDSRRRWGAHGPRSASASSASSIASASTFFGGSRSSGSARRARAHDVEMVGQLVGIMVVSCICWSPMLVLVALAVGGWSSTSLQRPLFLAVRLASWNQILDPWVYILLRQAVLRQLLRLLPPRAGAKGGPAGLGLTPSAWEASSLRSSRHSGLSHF

[12] = Blood clearance in cynomolgus monkey at 1 mg/kg, iv; type: ADME, organism-based, Macaca fascicularis; set-up: dose 1 mg/kg, route intravenous
[13] = Drug level in mouse brain at 3 mg/kg, po after 0.5 hrs; type: ADME, organism-based; set-up: dose 3 mg/kg, route oral; conditions: read-out: Drug uptake
[14] = target: T4, Peroxisome proliferator-activated receptor delta (Homo sapiens, UniProt Q03181); assay: Activity at PPARdelta
T4 sequence (Q03181 whole entry): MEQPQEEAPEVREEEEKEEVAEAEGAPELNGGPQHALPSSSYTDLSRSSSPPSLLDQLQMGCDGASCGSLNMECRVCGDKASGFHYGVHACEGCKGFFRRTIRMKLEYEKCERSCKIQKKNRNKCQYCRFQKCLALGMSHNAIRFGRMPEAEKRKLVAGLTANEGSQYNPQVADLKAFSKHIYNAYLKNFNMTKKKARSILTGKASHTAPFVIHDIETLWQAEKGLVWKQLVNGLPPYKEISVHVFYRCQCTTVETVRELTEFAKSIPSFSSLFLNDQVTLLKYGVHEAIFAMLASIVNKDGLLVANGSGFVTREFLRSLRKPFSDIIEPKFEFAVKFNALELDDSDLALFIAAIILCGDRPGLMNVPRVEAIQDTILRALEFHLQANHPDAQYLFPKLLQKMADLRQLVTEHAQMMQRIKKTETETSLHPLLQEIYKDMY

[15] = Oral bioavailability in rat at 3 mg/kg; type: ADME, organism-based; conditions: in vivo
[16] = Drug level in blood of sub-chronic rat joint pain efficacy model satellite animal group at 5 mg/kg bid measured on day 5 after 1 hr post dose; type: ADME, organism-based; set-up: dose 5 mg/kg; conditions: read-out: Drug uptake
[17] = Aqueous solubility in water after 2 hrs; type: physicochemical
[18] = Solubility in simulated gastric fluid after 24 hrs; type: physicochemical
[19] = Volume of distribution at steady state in cynomolgus monkey at 1 mg/kg, iv; type: ADME, organism-based, Macaca fascicularis; set-up: dose 1 mg/kg, route intravenous; conditions: in vivo, read-out: Vdss
[20] = species on record: Rattus norvegicus; assay: Antiinflammatory activity against complete Freund's adjuvant-induced hypersensitivity in rat inflammatory pain model; type: functional
[21] = Drug level in brain of sub-chronic rat joint pain efficacy model satellite animal group at 20 mg/kg bid measured on day 5 after 1 hr post dose; type: ADME, organism-based; set-up: dose 20 mg/kg; conditions: read-out: Drug uptake

- concentration at 1 h [1]: 5530 nM
- concentration at 1 h [2]: 3210 nM
- concentration at 18 h [3]: 550 nM
- concentration at 1 h [4]: 1480 nM
- Kp at 18 h [5]: 0.33
- IC50 [6]: 12.6 nM
- concentration at 1 h [7]: 5270 nM
- concentration at 1 h [8]: 2140 nM
- EC50 [9]: > 10000 nM
- concentration at 1 h [10]: 645 nM
- Ki [11]: 2.51 nM
- clearance [12]: 26 mL/min/kg
- concentration at 0.5 h [13]: 277 nM
- EC50 [14]: > 10000 nM
- bioavailability [15]: 95%
- concentration at 1 h [16]: 1660 nM
- solubility at 2 h [17]: 499 µg/mL
- solubility at 24 h [18]: 11 µg/mL
- Vd [19]: 0.5 L/kg
- concentration at 1 h [21]: 3630 nM
Compound: CC(C)COc1ccc(Cl)cc1-c1ccccc1-c1cccc(C(=O)[O-])n1.[Na+]
- ED50 [20]: 1.6 mg/kg
